Results: publication PMC3352927, “Development and Validation of an Automated High-Throughput System for Zebrafish In Vivo Screenings” (PLoS ONE, 2012)
“Also recorded” adds a separate entry of the source.

Columns and labels:
[1] = system: zebrafish embryos; experiment: Automated angiogenesis assay (ISV formation), Flk1:copGFP embryos treated at 22-26 hpf, read at 48 hpf; type: in vivo; settings: for Efective concentration (minimum concentration that showed an effect): given when IC50 could not be calculated; for Angiog. inhibition: presence or absence of an anti-angiogenic effect, 0.01-100 µM; for Anti-angiogenic phenotype (ISVs / DLAV): treated at 24 hpf, checked at 48 hpf
Description: In the angiogenesis assay, the fluorescent images taken were processed using AxioVision 4.6.3 and a macro was developed to quantify an indirect measure of the area of the ISVs. […] However, we usually include a manual counting to offer a more detailed measurement of effect.
In the automatic analysis of angiogenesis, it is first necessary to perform a sequence of automated filtering functions on the image to extract information, define the region of interest (ROI), that in this case is the part of the tail containing the ISVs, and allow the measurement of the embryo length. Recovering a previous image, new filtering functions are applied to the ROI. A gradient image containing the ISVs, the DLAV (Dorsal Longitudinal Anastomotic Vessel), the PCV and the DA is created. Next, fluorescent areas that should not be quantified are discarded. Finally, only the areas comprised between the ISVs, the DLAV and the PCV or the DA are measured (Figure 4). In that way, when the vessels are incomplete or the DLAV is not present, an enclosed area is not present and therefore not measured.
The means obtained from the treated embryos were compared with the control mean. When statistically significant differences were detected a deeper analysis was done manually. In this case the parameters quantified were:
• The total number of ISVs present in the trunk of the embryos (from where the largest bulge of the yolk ends to the end of the tail). • Number of complete ISVs (reached the dorsal part of the embryo and formed the DLAV).
A curve of six concentrations (0.01, 0.1, 1, 10, 30 and 100 µM) was performed for all of them. […] IC50 was calculated when a clear dose-dependent anti-angiogenesis effect was detected. Otherwise, the minimum dose at which the inhibition of angiogenesis was observed is shown (Table 4).
At this time, chorions were removed with protease from Streptomyces griseus (Sigma-Aldrich) (1.5 mg/ml for 6 minutes) and the embryos were sorted and dispensed 1 per well in a 96 well assay plate. Each experimental condition was tested in a row with ten embryos. Embryos were dispensed in an average final volume of 90 µl of E3 media. 90 µl of the test items (DMSO and positive control KRN633 included) previously diluted 100 times were dispensed into each well of the assay plate containing the embryos to get the final volume of 180 µl and the desired final concentration.
The microscope scanned the wells by columns and a bright field image and a fluorescent image (2.5×magnification) were acquired per well. Then, the image analysis was performed and the result file generated.
Statistical analysis and graphical representation of the data were performed using SSPS (Statistical Package for the Social Sciences) software and Prism (Graph Pad Software) for IC50 calculations (non linear regression, sigmoidal dose-response with variable slope). […] In the angiogenesis assay, for comparisons between two groups, two-tailed t-test was used assuming unequal variances. For comparisons between more than two groups one-way analysis of variance followed by Dunnett’s post-test was applied to compare each data point with vehicle control.

[2] = system: zebrafish embryos; experiment: Embryo analysis at 72 hpf (blood circulation and ISVs development); type: in vivo; settings: for Blood circulation / ISVs appearance: 72 hpf
Description: Embryos from the Flk1:copGFP line were treated with the indicated compounds at 22–23 hpf in 500 µl of E3 in p24 well plates (5 embryos per well). After 48 hours of treatment embryos were anesthetized with 10 µl Tricaine (final concentration 0.02%) and analyzed for the presence of blood circulation and ISVs development using a Leica M205 FA stereoscope equipped with a Hamamatsu C10600 camera.

[3] = Dilution of compound in E3 medium; type: physicochemical

SMILES | Efective concentration (minimum concentration that showed an effect) [1] [µM] | Angiog. inhibition [1] | Anti-angiogenic phenotype (ISVs / DLAV) [1] | Anti-angiogenic phenotype (ISVs / DLAV) ([1]; listed as AG1296) | Blood circulation [2] | ISVs appearance [2] | Lethality ([2]; treatment to 72 hpf at the 48 hpf doses which inhibited angiogenesis) | Inhibition of angiogenesis at maximum dose tested in medium ([1]; 10 µM in E3 medium) | Behaviour after dilution in E3 medium [3]
COc1cc2ncc(-c3ccccc3)nc2cc1OC [AG-1296] | 20 | Yes | moderate effect that did not increase with higher doses | inhibit proper development of the DLAV; also recorded: thinner ISVs rather than incomplete vessel formation | impaired blood circulation | thinner ISVs that were disrupted in some cases | – | – | –
COc1cc(Nc2c(C#N)cnc3cc(OCCCN4CCN(C)CC4)c(OC)cc23)c(Cl)cc1Cl [Bosutinib] | 50 | Yes | moderate effect that did not increase with higher doses | – | impaired blood circulation | thinner ISVs that were disrupted in some cases | – | – | –
CS(=O)(=O)Nc1ccc([N+](=O)[O-])cc1OC1CCCCC1 [NS-398] | 30 | Yes | moderate effect that did not increase with higher doses | – | – | – | lethal | – | –
Cn1c(=O)n(-c2ccc(C(C)(C)C#N)cc2)c2c3cc(-c4cnc5ccccc5c4)ccc3ncc21 [NVP-BEZ235] | 10 | Yes | moderate effect that did not increase with higher doses | – | impaired blood circulation | thinner ISVs that were disrupted in some cases | – | – | –
CCN(CC)CCCCNc1ncc2cc(-c3cc(OC)cc(OC)c3)c(NC(=O)NC(C)(C)C)nc2n1 [PD173074] | 100 | Yes | moderate effect that did not increase with higher doses; also recorded: inhibit proper development of the DLAV; also recorded: thinner ISVs rather than incomplete vessel formation | – | impaired blood circulation | thinner ISVs that were disrupted in some cases | – | – | –
CC(=O)O[C@H]1C(=O)[C@@]2(C)[C@H]([C@H](OC(=O)c3ccccc3)[C@]3(O)C[C@H](OC(=O)[C@H](O)[C@@H](NC(=O)c4ccccc4)c4ccccc4)C(C)=C1C3(C)C)[C@]1(OC(C)=O)CO[C@@H]1C[C@@H]2O [Paclitaxel] | – | Yes | the formation of ISVs was perturbed with defective or total absence of sprouting | – | – | – | – | not enough to induce inhibition of angiogenesis | precipitated
